This passage reports Dmax, DC50 and IC50 results from patent US20260256925A1, “INDAZOLE DERIVATIVES AS ESTROGEN RECEPTOR DEGRADERS” (REGENTS OF THE UNIVERSITY OF MICHIGAN, priority 2022, published 2026).

The target in experiment [1] is T1, ER (Homo sapiens, UniProt P03372).
T1 construct: endogenous in cells; probably T47D or MCF-7
T1 sequence (P03372 1-595): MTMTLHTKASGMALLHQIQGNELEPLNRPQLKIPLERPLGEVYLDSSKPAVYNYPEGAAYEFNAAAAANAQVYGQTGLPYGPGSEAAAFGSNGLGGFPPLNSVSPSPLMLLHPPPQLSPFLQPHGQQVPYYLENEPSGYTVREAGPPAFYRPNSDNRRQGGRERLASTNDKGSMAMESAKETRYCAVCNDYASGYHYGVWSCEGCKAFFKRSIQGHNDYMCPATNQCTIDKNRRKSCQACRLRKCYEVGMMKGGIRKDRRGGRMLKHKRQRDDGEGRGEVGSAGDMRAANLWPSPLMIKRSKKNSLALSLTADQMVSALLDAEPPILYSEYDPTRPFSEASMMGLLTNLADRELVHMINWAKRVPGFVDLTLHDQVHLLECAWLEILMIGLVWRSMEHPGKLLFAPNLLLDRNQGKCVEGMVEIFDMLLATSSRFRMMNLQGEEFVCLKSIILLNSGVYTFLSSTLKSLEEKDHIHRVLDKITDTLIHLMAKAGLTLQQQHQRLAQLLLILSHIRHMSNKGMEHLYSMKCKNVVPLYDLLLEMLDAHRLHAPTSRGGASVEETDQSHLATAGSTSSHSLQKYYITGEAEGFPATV
The experiment is described as follows: In-cell Western (ICW) ER degradation assay in MCF-7 cells. The conditions noted are these: for Dmax: MCF7, read-out: ER MCF7 ICW Dmax (%); for DC50: MCF-7 cells, 16 hrs, read-out: ER MCF7 ICW DC50. Format: cell-based.

For a further experiment, the system named is T47D cells. The experiment is described as follows: CellTiter-Glo (CTG) cell proliferation assay in T47D cells. As to conditions: Homo sapiens, 144 h, Day 6. Format: cell-based. The source says:
(§1) CellTiter-Glo® (CTG) assays in MCF-7 and T47D cell lines.
(§2) In vitro Assay: MCF-7 and T47D CTG assay

In another experiment the target is T2, ERα_LBD (GST) (Homo sapiens, UniProt P03372).
T2 construct: ERα_LBD (GST) protein: 4 nM; purchased ThermoFisher A15887
T2 sequence (P03372 311-547 limits assumed): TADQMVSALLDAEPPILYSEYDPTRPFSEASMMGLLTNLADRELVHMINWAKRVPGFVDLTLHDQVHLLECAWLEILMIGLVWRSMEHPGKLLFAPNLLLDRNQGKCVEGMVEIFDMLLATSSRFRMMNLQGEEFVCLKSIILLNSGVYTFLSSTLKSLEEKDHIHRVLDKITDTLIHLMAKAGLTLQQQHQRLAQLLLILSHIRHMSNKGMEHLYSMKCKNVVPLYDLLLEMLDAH
Kind of experiment: IC50 measurements for binding to ERα_LBD (GST), LanthaScreen TR-FRET ERα competitive binding assay. As to conditions: Fluormone ES2 Green tracer, 60 min, read-out: ERα HTRF IC50. As to the method:
In vitro Assay: IC50 Measurements for binding to ERα_LBD (GST)·
Final assay conditions: • 1. ERα_LBD (GST) protein: 4 nM • 2. Tb Anti-GST: 2 nM • 3. Fluormone ES2 Green tracer: 3 nM • 4. Incubation time: 60 min • 5. DMSO: 1% • 6. Assay buffer: Adding 1M DTT to Nuclear receptor Buffer K for final 5 mM DTT. • 7. ZPE: 1% DMSO • 8. HPE: 1 μM ARV_471 • 9. LanthaScreen® TR-FRET ERα Competitive Binding Assay (ThermoFisher, #A^15887)
100× Compound preparation: • 1) Cherry pick 2 μL 10 mM compound stock to column 1 of a 384 intermediate plate • 2) Add 18 μL DMSO to column 1 to dilute compound to 1 mM. • 3) Transfer 10 μL 1 mM compound to column 1 of a LDV plate. • 2) Add 6 μl DMSO to column 2-10 of the LDV plate. • 3) Compounds undergo 3-fold serial dilution (3 μL+6 μL) in DMSO. • 4) Transfer 120 nL compound solution to assay plate.
Prepare complete nuclear receptor buffer K by adding 1 M DTT to nuclear receptor buffer K for a final concentration of 5 mM DTT. Complete nuclear receptor buffer K must be prepared fresh daily. Prepare 2× protein solution using complete nuclear receptor buffer K containing 8 nM ERα_LBD (GST) and 4 nM Tb Anti-GST. Then, prepare 2× Fluormone ES2 Green tracer (6 nM) using complete nuclear receptor buffer K. Add 6 μL 2× Fluormone ES2 green tracer into a compound plate (PerkinElmer 6008289) by dragonfly with one-tips-addition. Subsequently, add 6 μL 2× protein solution into the plate. Briefly and gently mix the 384-well plate on a plate shaker and incubate at room temperature protected from light for 60 min. The plate is sealed with a cover to minimize evaporation. Read the plate at wavelengths of 520 nm and 495 nm. Calculate the TR-FRET ratio by dividing the emission signal at 520 nm by the emission signal at 495 nm. Generate a binding curve by plotting the emission ratio vs. the log [ligand]. To determine the IC50 value, fit the data using XL-fit for a sigmoidal dose-response.

The test system of a further experiment is MCF-7 cells. The experiment is described as follows: CellTiter-Glo (CTG) cell proliferation assay in MCF-7 cells. As to conditions: Homo sapiens, MCF7, 144 h, Day 6. It is filed as cell-based.
Source text: as §1, §2

In experiment [2] the target is T1, ER. Kind of experiment: In-cell Western (ICW) ER degradation assay in T47D cells. As to conditions: for Dmax: T47D, read-out: ER T47D ICW Dmax (%). It is filed as cell-based.

`C[C@@H]1Cc2c(ccc3[nH]ncc23)[C@H](c2ccc(N3CCC4(CC3)CC(CN3CCN5c6ccc7c(c6OC[C@H]5C3)CN([C@H]3CCC(=O)NC3=O)C7=O)CO4)nc2)N1CC(F)(F)F` (stereo partly drawn) [Compound A21, (3S)-3-((5aR)-7-((8-(5-((6R,8R)-8-methyl-7-(2,2,2-trifluoroethyl)-6,7,8,9-tetrahydro-3H-pyrazolo[4,3-f]isoquinolin-6-yl)pyridin-2-yl)-1-oxa-8-azaspiro[4.5]decan-3-yl)methyl)-1-oxo-1,3,5,5a,6,7,8,9-octahydro-2H-pyrazino[1′,2′: 4,5][1,4]oxazino[2,3-e]isoindol-2-yl)piperidine-2,6-dione]: the Dmax was more than 75% on ER [1] and more than 75% on ER [2] (T47D cells, 16 hrs). The DC50 on ER [1] was less than 1 nM; on ER [2] (T47D cells, 16 hrs) it was less than 1 nM. Further, the IC50 in the experiment with T47D cells was 10 to 50 nM; on ERα_LBD (GST), less than 10 nM; in the experiment with MCF-7 cells, less than 10 nM.
Take `C[C@@H]1Cc2c(ccc3[nH]ncc23)[C@@H](c2ccc(N3CCC(CN4CCN5c6cc7c(cc6OC[C@@H]5C4)C(=O)N([C@H]4CCC(=O)NC4=O)C7)CC3)nc2)N1CC(F)(F)F` [Compound A24, (S)-3-((S)-3-((1-(5-((6S,8R)-8-methyl-7-(2,2,2-trifluoroethyl)-6,7,8,9-tetrahydro-3H-pyrazolo[4,3-f]isoquinolin-6-yl)pyridin-2-yl)piperidin-4-yl)methyl)-8-oxo-1,2,3,4,4a,5,8,10-octahydro-9H-pyrazino[1′,2′: 4,5][1,4]oxazino[2,3-f]isoindol-9-yl)piperidine-2,6-dione]: the Dmax is 50 to 75% at ER [1] and more than 75% on ER [2]. For the same molecule, the DC50 on ER [1] is less than 1 nM; on ER [2] (T47D cells, 16 hrs) it was less than 1 nM. Besides, the figures for the IC50 in the experiment on T47D cells, on ERα_LBD (GST) and in the experiment on MCF-7 cells were more than 50 nM, less than 10 nM and more than 50 nM, respectively.
